Here are results for eleven compounds from ChEMBL document CHEMBL4699459, “Structure activity study of S-trityl-cysteamine dimethylaminopyridine derivatives as SIRT2 inhibitors: Improvement of SIRT2 binding and inhibition” (Bioorg Med Chem Lett, 2020).

Test [1] has as its system MCF7. Briefly: Antiproliferative activity against human MCF7 cells assessed as reduction in cell proliferation measured after 3 days by MTT assay. Type of test: functional, cell-based. Conditions: MCF7, 72 h. A general note: Tetrazolium assays rely on reduction of a dye to a coloured formazan, in cell work by metabolically active cells.
Test [2] relates to HL-60. Briefly: Antiproliferative activity against human HL-60 cells assessed as reduction in cell proliferation measured after 3 days by MTT assay. Type of test: functional, cell-based. The following applies: HL-60, 72 h.
Test [3] concerns HeLa. Briefly: Antiproliferative activity against human HeLa cells assessed as reduction in cell proliferation measured after 3 days by MTT assay. Type of test: functional, cell-based. The following applies: 72 h.
Test [4] concerns the target T1, NAD-dependent protein deacetylase sirtuin-2 (Homo sapiens, UniProt Q8IXJ6).
T1 sequence (Q8IXJ6 whole entry): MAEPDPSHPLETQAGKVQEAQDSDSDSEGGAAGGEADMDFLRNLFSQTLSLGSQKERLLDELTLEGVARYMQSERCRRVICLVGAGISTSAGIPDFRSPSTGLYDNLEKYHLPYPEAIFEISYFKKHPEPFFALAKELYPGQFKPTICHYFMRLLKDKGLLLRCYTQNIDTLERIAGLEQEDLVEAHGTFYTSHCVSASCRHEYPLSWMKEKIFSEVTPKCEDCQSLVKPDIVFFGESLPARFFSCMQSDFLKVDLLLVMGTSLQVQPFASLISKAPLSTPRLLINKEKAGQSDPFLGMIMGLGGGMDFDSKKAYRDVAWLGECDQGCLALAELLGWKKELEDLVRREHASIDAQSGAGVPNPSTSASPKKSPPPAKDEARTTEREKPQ
Briefly: Inhibition of recombinant SIRT2 (unknown origin) using FAM-labeled RHKK(Ac) LM peptide as substrate incubated for 60 mins by electrophoretic mobility shift assay. For orientation: In EMSA bound probe runs differently from free probe, usually more slowly.

Test [5] concerns K562. Briefly: Antiproliferative activity against human K562 cells assessed as reduction in cell proliferation measured after 3 days by MTT assay. Type of test: functional, cell-based. The following applies: K562, 72 h.
Test [6] deals with MT2. Put plainly: Cytotoxicity against human MT2 cells assessed as reduction in cell proliferation measured after 3 days by MTT assay. Type of test: cell-based. The following applies: MT2, 72 h.

One may read the IC50 as the midpoint of a concentration-inhibition curve.

For `c1ccc(C(SCCNCc2ccccn2)(c2ccccc2)c2ccccc2)cc1`, the IC50 in test [1] is 7.44 µM; in test [2], 5.76 µM; in test [3], 4.15 µM; in test [4], 39.3 µM; in test [5] it was 3.15 µM; in test [6], 3.56 µM.

Take `NCCSC(c1ccccc1)(c1ccccc1)c1ccccc1`: the IC50 in test [4] was more than 100 µM.

`CN(C)c1ccc(CNCCSC(c2ccccc2)(c2ccccc2)c2ccccc2)c(Cl)c1`: in test [4], the IC50 was more than 100 µM.

Regarding `CN(C)c1ccnc(CNCCSC(c2ccccc2)(c2ccccc2)c2ccccc2)c1`, the IC50 in test [1] amounted to 5.1 µM; in test [2], 1.87 µM; in test [3] it was 2.25 µM; in test [4] it was 7.5 µM; in test [5], 2.44 µM; in test [6] it was 3.16 µM.

As for `COC(=O)[C@@H](CSC(c1ccccc1)(c1ccccc1)c1ccccc1)NCc1cc(N(C)C)ccn1`, the IC50 was 3.16 µM in test [1]; 0.45 µM in test [2]; 1.56 µM in test [3]; 10.8 µM in test [4]; 2.17 µM in test [5]; 3.15 µM in test [6].

On to `COc1cc(N(C)C)ccc1CNCCSC(c1ccccc1)(c1ccccc1)c1ccccc1`, for which the IC50 in test [4] was more than 100 µM.

Consider `CN(C)c1cccc(CNCCSC(c2ccccc2)(c2ccccc2)c2ccccc2)c1`, for which the IC50 in test [4] was more than 100 µM.

Consider `CN(C)c1ccnc(CNCCS)c1`, for which the IC50 in test [4] was more than 100 µM.

As to `CCN(CC)c1ccnc(CNCCSC(c2ccccc2)(c2ccccc2)c2ccccc2)c1`, the IC50 in test [1] was 4.97 µM; in test [2] it was 2.68 µM; in test [3] it was 1.32 µM; in test [4], 7.6 µM; in test [5] it was 1.11 µM; in test [6], 2.22 µM.

Regarding `CN(C)c1ccnc(CNCCSC(C)(C)C)c1`, the IC50 in test [4] was more than 100 µM.

For `CN(C)c1ccnc(C(=O)NCCSC(c2ccccc2)(c2ccccc2)c2ccccc2)c1`, the IC50 in test [4] was more than 100 µM.
